Data: patent publication US12679824B2 (Hoffmann-La Roche Inc., priority 2020, dated 2026)

Tested on: Acinetobacter baumannii ATCC17961
Test: 90% Growth Inhibitory Concentration (IC90) determination, antimicrobial susceptibility testing
Type: cell-based
Conditions: Acinetobacter baumannii, ATCC17961, 16 h, Acinetobacter baumannii ATCC17961; Iso-Sensitest broth; growth by optical density at 600 nm over 16h; concentration inhibiting 90% of the growth; read-out: ATCC 17961 IC90
How it was run: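 Broth microdilution in Iso-Sensitest medium, compounds twofold diluted (e.g. 50–0.097 μM final), inoculum ~5×10^(5) CFU/ml, 35±2° C. OD600 was read every 20 min over 16 h. IC90 was derived from growth inhibition during logarithmic growth.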

Molecule `Cn1c(-c2cn(-c3ccc(N)cn3)nc2C(F)(F)F)cnc1C(=O)Nc1ccc(C(=O)N2CCC3(CC2)CCN(C(=O)[C@@H]2C[C@@H](O)CN2)C3)c(Cl)c1` [Example Z22, 5-[1-(5-amino-2-pyridyl)-3-(trifluoromethyl)pyrazol-4-yl]-N-[3-chloro-4-[2-[(2S,4R)-4-hydroxyprolyl]-2,8-diazaspiro[4.5]decane-8-carbonyl]phenyl]-1-methyl-imidazole-2-carboxamide] has an IC90 of 510 nM.
`Cn1c(-c2cn(-c3ccc(N)cn3)nc2C(F)(F)F)cnc1C(=O)Nc1ccc(C(=O)N[C@@H]2CC[C@@H](NC(=O)[C@@H]3C[C@@H](O)CN3)C2)c(Cl)c1` [Example Z23, 5-[1-(5-amino-2-pyridyl)-3-(trifluoromethyl)pyrazol-4-yl]-N-[3-chloro-4-[[(1R,3R)-3-[[(2S,4R)-4-hydroxyprolyl]amino]cyclopentyl]carbamoyl]phenyl]-1-methyl-imidazole-2-carboxamide] was tested, and the IC90 was 360 nM.
`Cn1c(-c2cn(-c3ccc(N)cn3)nc2C(F)(F)F)cnc1C(=O)Nc1ccc(C(=O)N2CCC(NC(=O)[C@@H]3C[C@@H](O)CN3)CC2)c(Cl)c1` [Example Z24, 5-[1-(5-amino-2-pyridyl)-3-(trifluoromethyl)pyrazol-4-yl]-N-[3-chloro-4-[4-[[(2S,4R)-4-hydroxyprolyl]amino]piperidine-1-carbonyl]phenyl]-1-methyl-imidazole-2-carboxamide] showed an IC90 of 460 nM.
`Cn1c(-c2cn(-c3ccc(N)cn3)nc2C(F)(F)F)cnc1C(=O)Nc1ccc(C(=O)N2CC3(CC(NC(=O)[C@@H]4C[C@@H](O)CN4)C3)C2)c(Cl)c1` [Example Z25, 5-[1-(5-amino-2-pyridyl)-3-(trifluoromethyl)pyrazol-4-yl]-N-[3-chloro-4-[6-[[(2S,4R)-4-hydroxyprolyl]amino]-2-azaspiro[3.3]heptane-2-carbonyl]phenyl]-1-methyl-imidazole-2-carboxamide] gave an IC90 of 540 nM.
`Cn1c(-c2cn(-c3ccc(N)cn3)nc2C(F)(F)F)cnc1C(=O)Nc1ccc(C(=O)NCCCNC(=O)[C@@H]2C[C@@H](O)CN2)c(Cl)c1` [Example Z26, 5-[1-(5-amino-2-pyridyl)-3-(trifluoromethyl)pyrazol-4-yl]-N-[3-chloro-4-[3-[[(2S,4R)-4-hydroxyprolyl]amino]propylcarbamoyl]phenyl]-1-methyl-imidazole-2-carboxamide] gave an IC90 of 690 nM.
`Cn1c(-c2cn(-c3ccc(N)cn3)nc2C(F)(F)F)cnc1C(=O)Nc1ccc(C(=O)NC2CN(C(=O)[C@@H]3C[C@@H](O)CN3)CC2CO)c(Cl)c1` (stereo partly drawn) [Example Z27, 5-[1-(5-amino-2-pyridyl)-3-(trifluoromethyl)pyrazol-4-yl]-N-[3-chloro-4-[[1-[(2S,4R)-4-hydroxyprolyl]-4-methylol-pyrrolidin-3-yl]carbamoyl]phenyl]-1-methyl-imidazole-2-carboxamide] gave an IC90 of 1180 nM.
`Cn1c(-c2cn(-c3ccc(N)cn3)nc2C(F)(F)F)cnc1C(=O)Nc1ccc(C(=O)NCCCCCN)c(Cl)c1` [Example Z28, N-[4-(5-aminopentylcarbamoyl)-3-chloro-phenyl]-5-[1-(5-amino-2-pyridyl)-3-(trifluoromethyl)pyrazol-4-yl]-1-methyl-imidazole-2-carboxamide] showed an IC90 of 360 nM.
In the case of `Cn1c(-c2cn(-c3cnc(N)cn3)nc2C(F)(F)F)cnc1C(=O)Nc1ccc(C(=O)N2CCN(C(=O)C3CCNCC3)CC2)c(Cl)c1` [Example Z29, 5-[1-(5-aminopyrazin-2-yl)-3-(trifluoromethyl)pyrazol-4-yl]-N-[3-chloro-4-(4-isonipecotoylpiperazine-1-carbonyl)phenyl]-1-methyl-imidazole-2-carboxamide], the IC90 is reported as 600 nM.
`Cn1c(-c2cn(-c3ccc(Cl)nc3)nc2C(F)(F)F)cnc1C(=O)Nc1ccc(C(=O)N2CCN(C(=O)[C@@H]3C[C@@H](O)CN3)CC2)c(Cl)c1` [Example Z30, N-[3-chloro-4-[4-[(2S,4R)-4-hydroxyprolyl]piperazine-1-carbonyl]phenyl]-5-[1-(6-chloro-3-pyridyl)-3-(trifluoromethyl)pyrazol-4-yl]-1-methyl-imidazole-2-carboxamide] gave an IC90 of 780 nM.
`COc1cccc(-n2cc(-c3cnc(C(=O)Nc4ccc(C(=O)N5CCN(C(=O)C6CCNCC6)CC5)c(Cl)c4)n3C)c(C(F)(F)F)n2)n1` [Example Z31, N-[3-chloro-4-(4-isonipecotoylpiperazine-1-carbonyl)phenyl]-5-[1-(6-methoxy-2-pyridyl)-3-(trifluoromethyl)pyrazol-4-yl]-1-methyl-imidazole-2-carboxamide] was tested, and the IC90 was 860 nM.
Work on `Cn1c(-c2cn(-c3ccc(N)cn3)nc2C(F)(F)F)cnc1C(=O)Nc1ccc(C(=O)N2CCNCC2)c(Cl)c1` [Example Z32, 5-[1-(5-amino-2-pyridyl)-3-(trifluoromethyl)pyrazol-4-yl]-N-[3-chloro-4-(piperazine-1-carbonyl)phenyl]-1-methyl-imidazole-2-carboxamide] yielded an IC90 of 390 nM.
Work on `Cn1c(-c2cn(-c3ccc(N)cn3)nc2C(F)(F)F)cnc1C(=O)Nc1ccc(C(=O)NCCNC(=O)[C@@H]2C[C@@H](O)CN2)c(Cl)c1` [Example Z33, 5-[1-(5-amino-2-pyridyl)-3-(trifluoromethyl)pyrazol-4-yl]-N-[3-chloro-4-[2-[[(2S,4R)-4-hydroxyprolyl]amino]ethylcarbamoyl]phenyl]-1-methyl-imidazole-2-carboxamide] yielded an IC90 of 1220 nM.
Work on `Cn1c(-c2cn(-c3ccc(N)cn3)nc2C(F)(F)F)cnc1C(=O)Nc1ccc(C(=O)NCC2CCN(C(=O)[C@@H]3C[C@@H](O)CN3)CC2)c(Cl)c1` [Example Z34, 5-[1-(5-amino-2-pyridyl)-3-(trifluoromethyl)pyrazol-4-yl]-N-[3-chloro-4-[[1-[(2S,4R)-4-hydroxyprolyl]-4-piperidyl]methylcarbamoyl]phenyl]-1-methyl-imidazole-2-carboxamide] yielded an IC90 of 410 nM.
Molecule `CN(C(=O)c1ccc(NC(=O)c2ncc(-c3cn(-c4ccc(N)cn4)nc3C(F)(F)F)n2C)cc1Cl)C1CCN(C(=O)[C@@H]2C[C@@H](O)CN2)CC1` [Example Z35, 5-[1-(5-amino-2-pyridyl)-3-(trifluoromethyl)pyrazol-4-yl]-N-[3-chloro-4-[[1-[(2S,4R)-4-hydroxyprolyl]-4-piperidyl]-methyl-carbamoyl]phenyl]-1-methyl-imidazole-2-carboxamide] has an IC90 of 270 nM.
For `Cn1c(-c2cn(-c3ccc(N)cn3)nc2C(F)(F)F)cnc1C(=O)Nc1ccc(C(=O)NCC2CC2NC(=O)[C@@H]2C[C@@H](O)CN2)c(Cl)c1` (stereo partly drawn) [Example Z36, 5-[1-(5-amino-2-pyridyl)-3-(trifluoromethyl)pyrazol-4-yl]-N-[3-chloro-4-[[2-[[(2S,4R)-4-hydroxyprolyl]amino]cyclopropyl]methylcarbamoyl]phenyl]-1-methyl-imidazole-2-carboxamide], the IC90 was 1180 nM.
`Cn1c(-c2cn(-c3ccc(N)cn3)nc2C(F)(F)F)cnc1C(=O)Nc1ccc(C(=O)N2CC3CN(C(=O)[C@@H]4C[C@@H](O)CN4)CC3C2)c(Cl)c1` (stereo partly drawn) [Example Z37, 5-[1-(5-amino-2-pyridyl)-3-(trifluoromethyl)pyrazol-4-yl]-N-[3-chloro-4-[5-[(2S,4R)-4-hydroxyprolyl]-1,3,3a,4,6,6a-hexahydropyrrolo[3,4-c]pyrrole-2-carbonyl]phenyl]-1-methyl-imidazole-2-carboxamide] was tested, and the IC90 was 500 nM.
Molecule `Cn1c(-c2cn(-c3ccc(N)cn3)nc2C(F)(F)F)cnc1C(=O)Nc1ccc(C(=O)N[C@H]2C[C@H](NC(=O)[C@@H]3C[C@@H](O)CN3)C2)c(Cl)c1` [Example Z38, 5-[1-(5-amino-2-pyridyl)-3-(trifluoromethyl)pyrazol-4-yl]-N-[3-chloro-4-[trans-[3-[[(2S,4R)-4-hydroxyprolyl]amino]cyclobutyl]carbamoyl]phenyl]-1-methyl-imidazole-2-carboxamide] has an IC90 of 660 nM.
`Cn1c(-c2cn(-c3ccc(N)cn3)nc2C(F)(F)F)cnc1C(=O)Nc1ccc(C(=O)N2CC[C@@H](CNC(=O)[C@@H]3C[C@@H](O)CN3)C2)c(Cl)c1` [Example Z39, 5-[1-(5-amino-2-pyridyl)-3-(trifluoromethyl)pyrazol-4-yl]-N-[3-chloro-4-[(3S)-3-[[[(2S,4R)-4-hydroxyprolyl]amino]methyl]pyrrolidine-1-carbonyl]phenyl]-1-methyl-imidazole-2-carboxamide] showed an IC90 of 580 nM.
Molecule `Cn1c(-c2cn(-c3ccc(N)cn3)nc2C(F)(F)F)cnc1C(=O)Nc1ccc(C(=O)NCCOCCNC(=O)[C@@H]2C[C@@H](O)CN2)c(Cl)c1` [Example Z40, 5-[1-(5-amino-2-pyridyl)-3-(trifluoromethyl)pyrazol-4-yl]-N-[3-chloro-4-[2-[2-[[(2S,4R)-4-hydroxyprolyl]amino]ethoxy]ethylcarbamoyl]phenyl]-1-methyl-imidazole-2-carboxamide] has an IC90 of 780 nM.
`Cn1c(-c2cn(-c3ccc(N)cn3)nc2C(F)(F)F)cnc1C(=O)Nc1ccc(C(=O)N[C@@H]2COC3(C2)CN(C(=O)[C@@H]2C[C@@H](O)CN2)C3)c(Cl)c1` [Example Z41, 5-[1-(5-amino-2-pyridyl)-3-(trifluoromethyl)pyrazol-4-yl]-N-[3-chloro-4-[[(7S)-2-[(2S,4R)-4-hydroxyprolyl]-5-oxa-2-azaspiro[3.4]octan-7-yl]carbamoyl]phenyl]-1-methyl-imidazole-2-carboxamide] was tested, and the IC90 was 300 nM.
With `Cn1c(-c2cn(-c3ccc(N)cn3)nc2C(F)(F)F)cnc1C(=O)Nc1ccc(C(=O)N2CC[C@H](CNC(=O)[C@@H]3C[C@@H](O)CN3)C2)c(Cl)c1` [Example Z44, 5-[1-(5-amino-2-pyridyl)-3-(trifluoromethyl)pyrazol-4-yl]-N-[3-chloro-4-[(3R)-3-[[[(2S,4R)-4-hydroxyprolyl]amino]methyl]pyrrolidine-1-carbonyl]phenyl]-1-methyl-imidazole-2-carboxamide] the IC90 was 810 nM.
